Consider seven compounds from patent publication US20150175655A1 (priority 2012, published 2015).

Like-named read-outs stand apart in the source and are kept apart here.

For data set [1] the following is noted: rcm bond, Zhan 1B, DCE.
In data set [2] the test system is genotype 1b transient HCV replicon, NS3/4a protease inhibitor resistant variant D168A, in Huh-7-derived cells. Kind of data set: Transient-transfected HCV replicon EC50, genotype 1b D168A. Type of data set: cell-based. The conditions noted are these: Hepatitis C virus, 72 h, read-out: EC50 1B D168A.
Data set [3] relates to genotype 3a stable HCV replicon (S52 strain) in Huh-7-derived cells. Kind of data set: Stable subgenomic HCV replicon EC50, genotype 3a (Renilla luciferase). Conditions: Hepatitis C virus, 72 h, read-out: EC50 3A RLUC. Format: cell-based. The protocol: (§1) Antiviral potency (EC50) was determined in both stable subgenomic HCV replicon cell lines and transient-transfected HCV replicon cells. The term half maximal effective concentration (EC50) refers to the concentration of a drug which induces a response halfway between the baseline and maximum after the exposure time specified below.
(§2) Stable subgenomic HCV replicons for genotype 1a, 1 b, 2a, 3a, and 4a were established in Huh-7-derived cells as described by Lohmann et al (Lohmann V, Korner F, Koch J, et al Replication of subgenomic hepatitis C virus RNAs in a hepatoma cell line. Science 1999; 285:119-3). Each stable cell line contains a bicistronic HCV replicon that encodes a humanized Renilla luciferase (hRLuc) reporter gene fused to a selectable neomycin-resistance gene, followed by an EMCV IRES and the NS3-NS5B coding region of HCV. […] Luciferase activity was measured as a marker for intracellular HCV replication levels.
(§3) The genotype 1a stable replicon was derived from the H77 HCV strain and contained adaptive mutations P1496L and S2204I. The genotype 1 b stable replicon was derived from the Cont HCV strain and contained adaptive mutations E1202G, T1280I, and K1846T. […] The genotype 3a stable replicon was derived from the S52 HCV strain and contained adaptive mutations P1121 L, A1198T and S2210I (equivalent to S2204I in genotype 1). The genotype 4a stable replicon was derived from the ED43 HCV strain and contained adaptive mutations Q1691R and S2204I. All replicon cell lines were propagated in Huh-7-derived cells and maintained in Dulbecco's modified Eagle's Medium (DMEM) supplemented with 10% fetal bovine serum (FBS) and 0.5 mg/mL G418.
(§4) To perform EC50 assays, cells from each HCV replicon were dispensed into 384-well plates. Compounds were dissolved in DMSO at a concentration of 10 mM and diluted in DMSO using an automated pipetting instrument. Three-fold serially diluted compounds were directly added to the cells using an automated instrument. […] Seventy-two hours later, cells were lysed and Renilla luciferase activity were quantified as recommended by the manufacturer (Promega-Madison, Wis.). Non-linear regression was performed to calculate EC50 values.
For orientation: A replicon is a self-replicating genome or part of one, used to study replication in cells.

Data set [4] has as its system genotype 1b (Con1) wild-type transient HCV replicon in Huh-7-derived cells. Kind of data set: Transient-transfected HCV replicon EC50, genotype 1b wild type. Type of data set: cell-based. The conditions noted are these: Hepatitis C virus; transient-transfected replicon genotype 1b wild type, 72 h; read-out: EC50 1B WT.
Data set [5] relates to genotype 1a transient HCV replicon, NS3/4a protease inhibitor resistant variant R155K, in Huh-7-derived cells. Kind of data set: Transient-transfected HCV replicon EC50, genotype 1a R155K. Type of data set: cell-based. Conditions: Hepatitis C virus, 72 h, read-out: EC50 1A R155K.
The subject of data set [6] is genotype 2a stable HCV replicon (JFH-1 strain) in Huh-7-derived cells. Kind of data set: Stable subgenomic HCV replicon EC50, genotype 2a (Renilla luciferase). Format: cell-based. The conditions noted are these: Hepatitis C virus, stable replicon genotype 2a, 72 h, read-out: EC50 2A RLUC. As to the method:
as §1, §2, §3, §4

Data set [7] has as its system genotype 1a stable HCV replicon (H77 strain) in Huh-7-derived cells. Kind of data set: Stable subgenomic HCV replicon EC50, genotype 1a (Renilla luciferase). Format: cell-based. The conditions noted are these: Hepatitis C virus, stable replicon genotype 1a, 72 h, read-out: EC50 1A RLUC. The protocol:
as §1, §2, §3, §4

Data set [8] concerns genotype 1b stable HCV replicon in Huh-7-derived cells. Kind of data set: Stable subgenomic HCV replicon EC50, genotype 1b (Renilla luciferase). Conditions: Hepatitis C virus, stable replicon genotype 1b, 72 h, read-out: EC50 1B RLUC. Format: cell-based. As to the method: as §1, §2, §3, §4
Data set [9] relates to genotype 1a (H77) wild-type transient HCV replicon in Huh-7-derived cells. Kind of data set: Transient-transfected HCV replicon EC50, genotype 1a wild type. Type of data set: cell-based. The conditions noted are these: Hepatitis C virus; transient-transfected replicon genotype 1a wild type, 72 h; read-out: EC50 1A WT.
For data set [10], the system named is genotype 4a stable HCV replicon (ED43 strain) in Huh-7-derived cells. Kind of data set: Stable subgenomic HCV replicon EC50, genotype 4a (Renilla luciferase). Type of data set: cell-based. Conditions: Hepatitis C virus, 72 h, read-out: EC50 4A RLUC. As to the method:
as §1, §2, §3, §4

With `CCC[C@@H]1[C@@H]2CN(C(=O)[C@H](C(C)(C)C)NC(=O)O[C@@H]3C[C@H]3CCCC=Cc3nc4ccc(OC)cc4nc3O2)[C@@H]1C(=O)OC(C)(C)C`, in [1] (from C=CCCC[C@@H]1C[C@H]1OC(=O)N[C@H](C(=O)N1C[C@H](Oc2nc3cc(OC)ccc3nc2C=C)[C@@H](CCC)[C@H]1C(=O)OC(C)(C)C)C(C)(C)C, 5.0 mM, 100.0 °C, 1.0 h), the ring closure, yield of all isomers turned out to be 80.7%.

In data set [1] (from C=CCCC[C@@H]1C[C@H]1OC(=O)N[C@H](C(=O)N1C[C@H](Oc2nc3cc(OC)ccc3nc2C=C)[C@@H](C2CC2)[C@H]1C(=O)OC)C(C)(C)C, 4.96 mM, 83.0 °C, 0.83 h), `COC(=O)[C@@H]1[C@H](C2CC2)[C@@H]2CN1C(=O)[C@H](C(C)(C)C)NC(=O)O[C@@H]1C[C@H]1CCCC=Cc1nc3ccc(OC)cc3nc1O2` displayed a ring closure, yield of all isomers of 39%.

For `COc1ccc2nc3c(nc2c1)O[C@H]1CN(C(=O)[C@H](C(C)(C)C)NC(=O)O[C@@H]2CCC[C@H]2CCCC=C3)[C@H](C(=O)OC(C)(C)C)[C@@H]1C`, the ring closure, yield of all isomers in data set [1] (from C=CCCC[C@@H]1CCC[C@H]1OC(=O)N[C@H](C(=O)N1C[C@H](Oc2nc3cc(OC)ccc3nc2C=C)[C@@H](C)[C@H]1C(=O)OC(C)(C)C)C(C)(C)C, 4.97 mM, 83.0 °C, […]) came out at 78.5%.

`COc1ccc2nc3c(nc2c1)O[C@H]1CN(C(=O)[C@H](C2(C)CCCC2)NC(=O)O[C@@H]2C[C@H]2CCCC=C3)[C@H](C(=O)OC(C)(C)C)[C@@H]1C` yielded a ring closure, yield of all isomers in data set [1] (from C=CCCC[C@@H]1C[C@H]1OC(=O)N[C@H](C(=O)N1C[C@H](Oc2nc3cc(OC)ccc3nc2C=C)[C@@H](C)[C@H]1C(=O)OC(C)(C)C)C1(C)CCCC1, 5.03 mM, 83.0 °C, […]) of 78%.

For the compound `CC[C@@H]1[C@@H]2CN(C(=O)[C@H](C(C)(C)C)NC(=O)O[C@]3(C(F)(F)F)CCC[C@H]3CCCCCc3nc4ccc(OC)cc4nc3O2)[C@@H]1C(=O)N[C@]1(C(=O)NS(=O)(=O)C2CC2)C[C@H]1C(F)F` [Example 11, (7S,10S,11S,12R)-7-tert-butyl-N-[(1R,2R)-1-[(cyclopropylsulfonyl)carbamoyl]-2-(difluoromethyl)cyclopropyl]-11-ethyl-16-methoxy-5,8-dioxo-3aR-(trifluoromethyl)-1,2,3,3a,5,6,7,8,11,12,20,21,22,23,24,24a-hexadecahydro-10H-9,12-methanocyclopenta[18,19][1,10,3,6]dioxadiazacyclononadecino[11,12-b]quinoxaline-10-carboxamide], the EC50 (as a rule, the concentration that produces a half-maximal response) in data set [2] worked out at 605 nM; in data set [3], 1160 nM; in data set [4], 9.4 nM; in data set [5], 159 nM; in data set [6] it was 34 nM; in data set [7], 28 nM. Besides, the EC50 in [8] is 17 nM; in [9], 20 nM; in [10], 19 nM.

With `CC[C@@H]1[C@@H]2CN(C(=O)[C@H](C(C)(C)C)NC(=O)O[C@@]3(C(F)(F)F)CCC[C@H]3CCCCCc3nc4ccc(OC)cc4nc3O2)[C@@H]1C(=O)N[C@]1(C(=O)NS(=O)(=O)C2CC2)C[C@H]1C(F)F` [Example 12, (7S,10S,11S,12R)-7-tert-butyl-N-[(1R,2R)-1-[(cyclopropylsulfonyl)carbamoyl]-2-(difluoromethyl)cyclopropyl]-11-ethyl-16-methoxy-5,8-dioxo-3a5-(trifluoromethyl)-1,2,3,3a,5,6,7,8,11,12,20,21,22,23,24,24a-hexadecahydro-10H-9,12-methanocyclopenta[18,19][1,10,3,6]dioxadiazacyclononadecino[11,12-b]quinoxaline-10-carboxamide], the EC50 in data set [2] is 640 nM; in [3] it was 2010 nM; in data set [4] it was 5.7 nM; in data set [5], 283 nM; in data set [6] it was 25 nM; in data set [7], 34 nM. Further, the EC50 was determined as 18 nM in data set [8], 14 nM in data set [9] and 21 nM in data set [10].

Turning to `COc1ccc2nc3c(nc2c1)O[C@H]1CN(C(=O)[C@H](C(C)(C)C)NC(=O)O[C@@H]2CCN(C(C)=O)C2CCCCC3)[C@H](C(=O)N[C@]2(C(=O)NS(=O)(=O)C3(C)CC3)C[C@H]2C(F)F)[C@@H]1C` (stereo partly drawn) [Example 80, (3aR,7S,10S,11S,12R)-1-acetyl-7-tert-butyl-N-[(1R,2R)-2-(difluoromethyl)-1-{[(1-methylcyclopropyl)sulfonyl]carbamoyl}cyclopropyl]-16-methoxy-11-methyl-5,8-dioxo-1,2,3,3a,5,6,7,8,11,12,20,21,22,23,24,24a-hexadecahydro-10H-9,12-methanopyrrolo[2′,3′:18,19][1,10,3,6]dioxadiazacyclononadecino[11,12-b]quinoxaline-10-carboxamide], in data set [3], the EC50 was no less than 44400 nM.
